According to patent US4900757A, “Hypocholesterolemic and antiatherosclerotic uses of bix(3,5-di-tertiary-butyl-4-hydroxyphenylthio)methane” (Merrell Dow Pharmaceuticals Inc., priority 1988, dated 1990):

Columns and labels:
[1] = system: mice; settings: cited from earlier work
[2] = system: human LDL; test: Inhibition of LDL peroxidation (cupric sulfate, thiobarbituric acid assay; Example 3); settings: ratio of ID50, in words
[3] = system: Watanabe heritable hyperlipidemic (WHHL) rabbit; test: Antiatherosclerotic and hypocholesterolemic effects in the Watanabe Heritable Hyperlipidemic rabbit (Example 2); type: in vivo; settings: for Aortic Lesions, as a percent of control group / HDL Protein, as a percent of control group / LDL Cholesterol, as a percent of control group / Plasma Cholesterol, as a percent of control group: mean vs respective control group
From the text: Divide Watanabe Heritable Hyperlipidemic rabbits (WHHL), 13 to 15 weeks of age, into two treatment groups of 4 to 5 rabbits each. To one treatment group feed standard rabbit chow [Control Group], and to the other group feed standard rabbit chow containing the test compound (1% by weight) [Treatment Group]. In one experiment, probucol is the active treatment [Treatment Group A]. In another experiment, bis(3,5-di-tertiarybutyl-4-hydroxyphenylthio)methane is the active treatment [Treatment Group B].
After 12 weeks of treatment, sacrifice the study animals and take plasma and aorta samples. Determine for each study animal the extent of the atherosclerotic lesions of the aorta by the method of Badimon et al. [Atherosclerosis 61, 57 (1986)]. Determine for each study animal plasma cholesterol concentrations by an enzymatic method using a DACOS analyzer (Coulter Electronics Inc., Hialeah, Florida, USA). Isolate plasma lipoproteins by sequential ultracentrifugation and determine LDL and HDL cholesterol and protein by the method of Mao et al. [Biochemistry 14, 4127 (1975)].

[4] = system: LDL; settings: in words; cited from earlier work
[5] = system: LDL; settings: in vitro; in words; cited from earlier work
[6] = system: WHHL rabbit; settings: in words; cited from earlier work
[7] = 1% (w/w) in feed, 12 weeks, in words

| Compound | reduction in the blood cholesterol of mice, in words ([1]; comparable treatment (to 2 weeks probucol)) | effectiveness in inhibiting peroxidation of human LDL relative to probucol [2] | Aortic Lesions, as a percent of control group ([3]; 1% (w/w) in feed, 12 weeks) | HDL Protein, as a percent of control group ([3]; 1% (w/w) in feed, 12 weeks) | LDL Cholesterol, as a percent of control group ([3]; 1% (w/w) in feed, 12 weeks) | Plasma Cholesterol, as a percent of control group ([3]; 1% (w/w) in feed, 12 weeks) | amount of HDL in the blood, as measured by HDL protein [3, 7] | reduction of LDL cholesterol compared with probucol [3, 7] | reduction of aortic lesions compared with probucol [3, 7] | reduction of plasma cholesterol compared with probucol [3, 7] | progression of atherosclerosis in the WHHL rabbit ([3]; in words) | serum cholesterol in the WHHL rabbit ([3]; in words) | inhibition of oxidative modification of LDL by endothelial cells [4] | inhibition of oxidative modification of LDL by cupric ions [5] | reduction in the blood cholesterol of mice ([1]; 2 week treatment) | preventing the progression of atherosclerosis in WHHL rabbit [6] |
| --- | --- | --- | --- | --- | --- | --- | --- | --- | --- | --- | --- | --- | --- | --- | --- | --- |
| CC(C)(C)c1cc(SCSc2cc(C(C)(C)C)c(O)c(C(C)(C)C)c2)cc(C(C)(C)C)c1O | no reduction | over twice as effective | -38% | +8% | -35% | -20% | increased | to a greater extent than probucol | to a greater extent than probucol | to a greater extent than probucol | prevents the progression of atherosclerosis | reduces serum cholesterol |  |  |  |  |
| CC(C)(Sc1cc(C(C)(C)C)c(O)c(C(C)(C)C)c1)Sc1cc(C(C)(C)C)c(O)c(C(C)(C)C)c1 [Probucol, 2,2'-bis(3,5-di-tertiary-butyl-4-hydroxyphenylthio)propane, reference compound] |  |  | -33% | -21% | -15% | -12% | decreased |  |  |  |  |  | inhibits the oxidative modification of LDL | inhibits the oxidative modification of LDL | 59% | effective in preventing the progression of atherosclerosis |
